Assay results from paper PMC10544575, “Inhibitory mechanism of vortioxetine on CYP450 enzymes in human and rat liver microsomes” (Frontiers in Pharmacology, 2023).
Where two headings read alike, the source gives them in different places.

Columns and labels:
CYP3A4 = CYP3A4 (Homo sapiens, UniProt P08684); experiment: IC50 of vortioxetine on CYP3A4 (midazolam) in HLMs; format: in vitro ADME; design: 0.20 mg/mL HLMs; from tissue; host or cells: human liver microsomes
Procedure: (§1) The components of the incubation system were as follows: 0.20 mg/mL HLMs or 0.20 mg/mL RLMs, 0.1 M Tris-HCl, vortioxetine, and the probe substrates of each enzyme. In the study of Km’s (Michaelis–Menten constant) experiment, midazolam (1, 2, 5, 10, 20, 50 and 100 μM in HLMs and RLMs) corresponded to CYP3A4/3A; bupropion (10, 20, 50, 100, 200, 500, 1,000 and 2000 μM in HLMs; 1, 2, 5, 10, 20, 50, 100 and 200 μM in RLMs) corresponded to CYP2B6/2B; amodiaquine (5, 10, 20, 50, 100 and 200 μM in HLMs; 10, 20, 50, 100, 200, 500 μM in RLMs) corresponded to CYP2C8/CYP2C-1; losartan (1, 2, 5, 10, 20, 50, 100, 200 μM in HLMs; 10, 20, 50, 100, 200, 500 and 1,000 μM in RLMs) corresponded to CYP2C9/CYP2C-2; mephenytoin (20, 50, 100, 200, 500 and 1,000 μM in HLMs; 5, 10, 20, 50, 100, 200, 500 and 1,000 μM in RLMs) corresponded to CYP2C19/CYP2C-3; and dextromethorphan (1, 2, 5, 10, 20, 50 and 100 μM in HLMs and RLMs) corresponded to CYP2D6/CYP2D. […]
(§2) All experiments results were detected by UPLC-MS/MS, which equipped with a Waters Acquity UPLC system (Milford, MA, United States) and a Waters Xevo TQ-S triple quadrupole tandem mass spectrometer with an electrospray ionization source (Milford, MA, United States). […]
(§3) IC50 values and enzyme kinetic parameters were calculated by Graphpad Prism 6.0 (GraphPad software Inc., CA, United States). […] Data for each experiment were expressed as mean ± SD (n = 3).

CYP2C19 = CYP2C19 (Homo sapiens, UniProt P33261); experiment: IC50 of vortioxetine on CYP2C19 (mephenytoin) in HLMs; format: in vitro ADME; design: 0.20 mg/mL HLMs; from tissue; host or cells: human liver microsomes
Procedure: as §1, §2, §3

CYP2C-1 = experiment: Reversible inhibition kinetics (Lineweaver-Burk), CYP2C-1 in RLMs; format: in vitro ADME, rat
Procedure: The components of the incubation system were as follows: 0.20 mg/mL HLMs or 0.20 mg/mL RLMs, 0.1 M Tris-HCl, vortioxetine, and the probe substrates of each enzyme. In the study of Km’s (Michaelis–Menten constant) experiment, midazolam (1, 2, 5, 10, 20, 50 and 100 μM in HLMs and RLMs) corresponded to CYP3A4/3A; bupropion (10, 20, 50, 100, 200, 500, 1,000 and 2000 μM in HLMs; 1, 2, 5, 10, 20, 50, 100 and 200 μM in RLMs) corresponded to CYP2B6/2B; amodiaquine (5, 10, 20, 50, 100 and 200 μM in HLMs; 10, 20, 50, 100, 200, 500 μM in RLMs) corresponded to CYP2C8/CYP2C-1; losartan (1, 2, 5, 10, 20, 50, 100, 200 μM in HLMs; 10, 20, 50, 100, 200, 500 and 1,000 μM in RLMs) corresponded to CYP2C9/CYP2C-2; mephenytoin (20, 50, 100, 200, 500 and 1,000 μM in HLMs; 5, 10, 20, 50, 100, 200, 500 and 1,000 μM in RLMs) corresponded to CYP2C19/CYP2C-3; and dextromethorphan (1, 2, 5, 10, 20, 50 and 100 μM in HLMs and RLMs) corresponded to CYP2D6/CYP2D. After 5.0 min of preincubation in the shaking water bath, the reaction was started with the addition of 1.0 mM NADPH. The incubated temperature at 37°C for 30 min. After the incubation, the enzyme reaction was stopped by cooling at −80°C, and 200 μL of acetonitrile and 20 μL of internal standard diazepam (200 ng/mL) were added for protein precipitation. The solution was fully vortexed and centrifuged at 13,000 × rpm for 10 min, and the supernatant was collected for data analysis by UPLC-MS/MS.
The inhibitory mechanism of the inhibitor on the enzyme was generally used by different concentrations of the inhibitor against different concentrations of the probe substrate. The concentrations of the inhibitor and the concentrations of probe substrates in the experiment were estimated based on IC50 and Km values, respectively.
In RLMs, the concentrations of the substrates midazolam and dextromethorphan were 0.8, 1.6, 3.5, 7 μM and 5, 10, 20, 40 μM, respectively, vortioxetine concentrations were 4, 8, 16, 32 μM. The concentrations of mephenytoin and amodiaquine were 100, 200, 400, 800 μM and 5, 10, 20, 40 μM, respectively, vortioxetine concentrations were 5, 10, 20, 40 μM. The losartan concentrations were 4, 8, 15, 30 μM, corresponding to vortioxetine concentrations of 0.08, 0.15, 0.3, 0.6 μM. […]
as §2, §3

[1] = inhibitory effect (strength judged by IC50), HLMs

Chain of CYP2C19 (P33261 whole entry): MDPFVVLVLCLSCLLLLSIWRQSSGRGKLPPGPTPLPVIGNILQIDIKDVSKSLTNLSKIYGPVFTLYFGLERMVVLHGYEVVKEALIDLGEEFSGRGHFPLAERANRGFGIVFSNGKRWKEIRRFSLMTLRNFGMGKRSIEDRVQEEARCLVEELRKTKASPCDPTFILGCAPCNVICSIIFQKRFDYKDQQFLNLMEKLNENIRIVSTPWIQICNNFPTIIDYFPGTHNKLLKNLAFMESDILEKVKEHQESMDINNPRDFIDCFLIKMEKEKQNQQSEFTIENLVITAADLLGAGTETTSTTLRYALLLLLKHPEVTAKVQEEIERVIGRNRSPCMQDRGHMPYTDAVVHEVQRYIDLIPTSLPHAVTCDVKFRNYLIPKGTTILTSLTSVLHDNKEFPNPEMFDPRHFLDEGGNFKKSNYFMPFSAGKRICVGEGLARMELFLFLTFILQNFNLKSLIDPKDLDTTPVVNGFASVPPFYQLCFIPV
Chain of CYP3A4 (P08684 whole entry): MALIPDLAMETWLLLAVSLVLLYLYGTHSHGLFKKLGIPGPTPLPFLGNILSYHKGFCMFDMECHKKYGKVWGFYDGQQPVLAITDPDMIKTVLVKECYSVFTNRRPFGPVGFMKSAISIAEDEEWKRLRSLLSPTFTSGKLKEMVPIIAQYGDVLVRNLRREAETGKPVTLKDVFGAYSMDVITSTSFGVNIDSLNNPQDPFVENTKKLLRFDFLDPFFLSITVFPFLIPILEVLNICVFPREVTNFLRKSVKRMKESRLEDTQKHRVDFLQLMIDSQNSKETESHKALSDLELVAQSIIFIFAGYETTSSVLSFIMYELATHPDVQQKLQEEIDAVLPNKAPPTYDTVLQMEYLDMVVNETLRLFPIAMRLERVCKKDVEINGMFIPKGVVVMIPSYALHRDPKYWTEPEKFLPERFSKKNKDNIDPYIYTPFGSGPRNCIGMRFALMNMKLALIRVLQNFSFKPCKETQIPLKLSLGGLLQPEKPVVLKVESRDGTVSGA

Cc1ccc(Sc2ccccc2N2CCNCC2)c(C)c1 [vortioxetine]
IC50 (CYP3A4; HLMs 0.20 mg/mL, midazolam at Km, 37°C, 30 min, read-out: IC50): 9.31 µM | IC50 (CYP3A4; [1]): 1 to 10 µM | IC50 (CYP2C19; HLMs 0.20 mg/mL, mephenytoin at Km, 37°C, 30 min, read-out: IC50): 2.4 µM | IC50 (CYP2C19; [1]): 1 to 10 µM | α (CYP2C-1; amodiaquine): 1.42 | Inhibition type (CYP2C-1; amodiaquine, Lineweaver-Burk plot): mixed inhibition | αKi (CYP2C-1; amodiaquine, secondary plot of y-intercepts): 56.73 µM | Ki at 30 min (CYP2C-1; rat, rat liver microsomes, probe amodiaquine): 39.9 µM
